Assay results from PubChem BioAssay AID256 (DTP/NCI, 2004).
Where “and” joins values, the source holds several entries; their conditions need not be identical. Equal values may be shown once. Inconclusive results and toxic doses are left out. The calls were made as follows: active = survival T/C of 150% or more; inactive = T/C below 125% in these data.

Tested on: CD2F1 mice, L1210 leukemia ip, survival T/C
Assay: NCI In Vivo Anticancer Drug Screen. Data for tumor model L1210 Leukemia (intraperitoneal) in CD2F1 (CDF1) mice
Details: higher = longer survival
Summary of the method: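 In this screen, transplantable tumors were grown in mice given either the compound or its vehicle. Results were expressed as the treated measurement relative to the control measurement.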

[1] = endpoint: mean survival time, dose: 100.0 mg/kg/injection, schedule: Q01DX009 (ip), vehicle: saline with Tween-80
[2] = endpoint: mean survival time, dose: 200.0 mg/kg/injection, schedule: Q01DX009 (ip), vehicle: saline with Tween-80
[3] = endpoint: mean survival time, dose: 400.0 mg/kg/injection, schedule: Q01DX009 (ip), vehicle: saline with Tween-80
[4] = endpoint: mean survival time, dose: 75.0 mg/kg/injection, schedule: Q01DX001 (ip), vehicle: saline
[5] = endpoint: mean survival time, dose: 150.0 mg/kg/injection, schedule: Q01DX001 (ip), vehicle: saline
[6] = endpoint: mean survival time, dose: 300.0 mg/kg/injection, schedule: Q01DX001 (ip), vehicle: saline
[7] = endpoint: mean survival time, dose: 100.0 mg/kg/injection, schedule: Q04DX003 (ip), vehicle: saline with Tween-80
[8] = endpoint: mean survival time, dose: 200.0 mg/kg/injection, schedule: Q04DX003 (ip), vehicle: saline with Tween-80
[9] = endpoint: mean survival time, dose: 25.0 mg/kg/injection, schedule: Q01DX009 (ip), vehicle: saline with Tween-80
[10] = endpoint: mean survival time, dose: 50.0 mg/kg/injection, schedule: Q01DX009 (ip), vehicle: saline with Tween-80
[11] = endpoint: mean survival time, dose: 100.0 mg/kg/injection, schedule: Q04DX002 (ip), vehicle: saline with Tween-80
[12] = endpoint: mean survival time, dose: 200.0 mg/kg/injection, schedule: Q04DX002 (ip), vehicle: saline with Tween-80

Measured: T/C

Cc1cc2c(cc1C)C(=O)C(N(C)C)=CC2=O
inactive: [1] 102 % of control | [2] 98 % of control | [3] 91 % of control

Cc1cc2sc(C)[n+](CCCOS(=O)(=O)[O-])c2cc1C
inactive: [4] 104 % of control | [5] 104 % of control | [6] 96 % of control

COc1ccc(NC(=O)Nc2c(Oc3ccc(Cl)cc3)ccc(Cl)c2S(=O)(=O)O)cc1Cl
inactive: endpoint: mean survival time, dose: 50.0 mg/kg/injection, schedule: Q01DX009 (ip), vehicle: saline 98 % of control | endpoint: mean survival time, dose: 100.0 mg/kg/injection, schedule: Q01DX009 (ip), vehicle: saline 87 % of control | [7] 93 % of control | [8] 91 % of control

CNC(=O)Nc1ccncc1
inactive: [1] 97 % of control | [2] 102 % of control | [3] 102 % of control

O=C(Oc1ccc(OC(=O)c2ccccc2)c([N+](=O)[O-])c1)c1ccccc1
inactive: [4] 89 % of control | [5] 98 % of control | [6] 98 % of control

N#CSc1nc2ccccc2s1
inactive: [9] 96 % of control | [10] 94 % of control | [1] 97 % of control

COC(=O)c1cncn1C1c2ccccc2-c2ccccc21
inactive: endpoint: mean survival time, dose: 50.0 mg/kg/injection, schedule: Q04DX002 (ip), vehicle: saline with Tween-80 103 % of control | endpoint: mean survival time, dose: 100.0 mg/kg/injection, schedule: Q01DX001 (ip), vehicle: saline with Tween-80 86 % of control | [11] 98 % of control | endpoint: mean survival time, dose: 200.0 mg/kg/injection, schedule: Q01DX001 (ip), vehicle: saline with Tween-80 91 % of control | [12] 95 % of control | endpoint: mean survival time, dose: 400.0 mg/kg/injection, schedule: Q01DX001 (ip), vehicle: saline with Tween-80 91 % of control

Cc1ccc(S(=O)(=O)N2CCC(=O)c3ccc(Cl)cc32)cc1
inactive: endpoint: mean survival time, dose: 100.0 mg/kg/injection, schedule: Q01DX009 (ip), vehicle: Klucel (hydroxypropylcellulose) (HPC) 101 % of control | endpoint: mean survival time, dose: 200.0 mg/kg/injection, schedule: Q01DX009 (ip), vehicle: Klucel (hydroxypropylcellulose) (HPC) 93 % of control | endpoint: mean survival time, dose: 400.0 mg/kg/injection, schedule: Q01DX009 (ip), vehicle: Klucel (hydroxypropylcellulose) (HPC) 96 % of control

CCc1ccc(C(=O)N/N=C(\C)[C@]2(O)Cc3c(O)c4c(c(O)c3[C@@H](OC3CC(N)C(O)C(C)O3)C2)C(=O)c2c(OC)cccc2C4=O)cc1 (some centres undefined)
inactive: endpoint: mean survival time, dose: 0.25 mg/kg/injection, schedule: Q01DX009 (ip), vehicle: water 100 % of control | endpoint: mean survival time, dose: 0.5 mg/kg/injection, schedule: Q01DX009 (ip), vehicle: water 110 % of control | endpoint: mean survival time, dose: 1.0 mg/kg/injection, schedule: Q01DX009 (ip), vehicle: water 112 % of control | endpoint: mean survival time, dose: 8.0 mg/kg/injection, schedule: Q01DX009 (ip), vehicle: water 91 % of control

O=C(O)CC1CCCCCCCCCCC1=O (centres undefined)
inactive: [11] 98 % of control | [12] 91 % of control | endpoint: mean survival time, dose: 400.0 mg/kg/injection, schedule: Q04DX002 (ip), vehicle: saline with Tween-80 98 % of control

O=Cc1cc(Cl)cc(Cl)c1O
inactive: [7] 96 % of control | [8] 98 % of control

O=Cc1ccc([N+](=O)[O-])s1
inactive: endpoint: mean survival time, dose: 3.12 mg/kg/injection, schedule: Q01DX009 (ip), vehicle: saline with Tween-80 102 % of control and 108 % of control | endpoint: mean survival time, dose: 6.25 mg/kg/injection, schedule: Q01DX009 (ip), vehicle: saline with Tween-80 96 % of control and 102 % of control | endpoint: mean survival time, dose: 12.5 mg/kg/injection, schedule: Q01DX009 (ip), vehicle: saline with Tween-80 97 % of control and 98 % of control | [9] 104 % of control and 105 % of control | [10] 103 % of control and 107 % of control | [1] 109 % of control

CCCCc1ccc(N/C(N)=N/c2nc(C)cc(=O)[nH]2)cc1
inactive: [7] 98 % of control | [8] 98 % of control | endpoint: mean survival time, dose: 400.0 mg/kg/injection, schedule: Q04DX003 (ip), vehicle: saline with Tween-80 92 % of control

CC/C=C/CCOC(=N)C(Cl)(Cl)Cl
inactive: [10] 92 % of control | [1] 92 % of control | [2] 101 % of control

COC(=O)c1ncn(C2OC(CO)C(O)C2O)n1 (centres undefined)
inactive: endpoint: median survival time, dose: 8.75 mg/kg/injection, schedule: Q01DX005 (ip), vehicle: water 100 % of control | endpoint: median survival time, dose: 17.5 mg/kg/injection, schedule: Q01DX005 (ip), vehicle: water 96 % of control | endpoint: median survival time, dose: 35.0 mg/kg/injection, schedule: Q01DX005 (ip), vehicle: water 97 % of control | endpoint: median survival time, dose: 70.0 mg/kg/injection, schedule: Q01DX005 (ip), vehicle: water 97 % of control | endpoint: median survival time, dose: 140.0 mg/kg/injection, schedule: Q01DX005 (ip), vehicle: water 100 % of control

O=P(N1CC1)(N1CC1)N1CC1
inactive: endpoint: mean survival time, dose: 2.0 mg/kg/injection, schedule: Q03DX003 (ip), vehicle: saline 110 % of control | endpoint: mean survival time, dose: 16.0 mg/kg/injection, schedule: Q01DX009 (ip), vehicle: saline 96 % of control

CC1OC(O[C@H]2/C=C/C=C/C=C/C=C/C=C/C=C/C=C/[C@H](C)[C@@H](O)[C@@H](C)[C@H](C)OC(=O)C[C@H](O)C[C@H](O)CC[C@@H](O)[C@H](O)C[C@H](O)C[C@]3(O)C[C@H](O)[C@@H](C(=O)O)[C@H](C2)O3)C(O)C(N)C1O (some centres undefined)
inactive: endpoint: median survival time, dose: 2.0 mg/kg/injection, schedule: Q01DX009 (ip), vehicle: suspension in saline 97 % of control | endpoint: median survival time, dose: 4.0 mg/kg/injection, schedule: Q01DX009 (ip), vehicle: suspension in saline 102 % of control | endpoint: median survival time, dose: 8.0 mg/kg/injection, schedule: Q01DX009 (ip), vehicle: suspension in saline 102 % of control | endpoint: median survival time, dose: 16.0 mg/kg/injection, schedule: Q01DX009 (ip), vehicle: suspension in saline 97 % of control and 98 % of control | endpoint: median survival time, dose: 18.75 mg/kg/injection, schedule: Q01DX009 (ip), vehicle: suspension in saline 108 % of control | endpoint: median survival time, dose: 32.0 mg/kg/injection, schedule: Q01DX009 (ip), vehicle: suspension in saline 102 % of control and 105 % of control | endpoint: median survival time, dose: 37.5 mg/kg/injection, schedule: Q01DX009 (ip), vehicle: suspension in saline 104 % of control | endpoint: median survival time, dose: 64.0 mg/kg/injection, schedule: Q01DX009 (ip), vehicle: suspension in saline 101 % of control | endpoint: median survival time, dose: 75.0 mg/kg/injection, schedule: Q01DX009 (ip), vehicle: suspension in saline 104 % of control | endpoint: median survival time, dose: 128.0 mg/kg/injection, schedule: Q01DX009 (ip), vehicle: suspension in saline 105 % of control | endpoint: median survival time, dose: 150.0 mg/kg/injection, schedule: Q01DX009 (ip), vehicle: suspension in saline 112 % of control | endpoint: median survival time, dose: 300.0 mg/kg/injection, schedule: Q01DX009 (ip), vehicle: suspension in saline 106 % of control

CC1(C)C(=O)C(C)(C)C1=NNc1ccc([N+](=O)[O-])cc1[N+](=O)[O-]
inactive: endpoint: median survival time, dose: 50.0 mg/kg/injection, schedule: Q04DX002 (ip), vehicle: saline with Tween-80 90 % of control | endpoint: median survival time, dose: 100.0 mg/kg/injection, schedule: Q04DX002 (ip), vehicle: saline with Tween-80 100 % of control | endpoint: median survival time, dose: 200.0 mg/kg/injection, schedule: Q04DX002 (ip), vehicle: saline with Tween-80 90 % of control | endpoint: median survival time, dose: 400.0 mg/kg/injection, schedule: Q04DX002 (ip), vehicle: saline with Tween-80 100 % of control

CCCSc1ccc2nc(NC(=O)OC)[nH]c2c1
inactive: [10] 93 % of control | [1] 107 % of control | [2] 118 % of control

NC(=O)c1ncn(C2CC3[O][Sn]([c]4ccccc4)([c]4ccccc4)[O]CC3O2)n1 (centres undefined)
inactive: endpoint: mean survival time, dose: 12.5 mg/kg/injection, schedule: Q01DX005 (ip), vehicle: distilled water + Tween-80 101 % of control | endpoint: mean survival time, dose: 25.0 mg/kg/injection, schedule: Q01DX005 (ip), vehicle: distilled water + Tween-80 97 % of control | endpoint: mean survival time, dose: 100.0 mg/kg/injection, schedule: Q01DX005 (ip), vehicle: distilled water + Tween-80 88 % of control | endpoint: mean survival time, dose: 200.0 mg/kg/injection, schedule: Q01DX005 (ip), vehicle: distilled water + Tween-80 95 % of control
